Results taken from patent US10365289B2 (Max-Planck-Gesellschaft zur Forderung der Wissenschaften …, priority 2014, dated 2019).

Assays:
[1] = described ranking of GA isoforms; cited from earlier work
[2] = target: T1, GID1C based sensor peptide with co-expression of a DELLA protein (GAI) (Arabidopsis thaliana, UniProt Q940G6); assay: yeast liquid luciferase assay, GID1C based sensor with co-expression of the DELLA protein GAI; type: cell-based; settings: Saccharomyces cerevisiae, GAI co-expressed; FIG. 6D
T1 construct: expressed in transfected cells; host or cells: Saccharomyces cerevisiae AH109, plasmids IR214 (GID1CLUC-pDest22) and IR236 (GAI in pDEST32)
T1 sequence (Q940G6 with tags, fused parts or gaps): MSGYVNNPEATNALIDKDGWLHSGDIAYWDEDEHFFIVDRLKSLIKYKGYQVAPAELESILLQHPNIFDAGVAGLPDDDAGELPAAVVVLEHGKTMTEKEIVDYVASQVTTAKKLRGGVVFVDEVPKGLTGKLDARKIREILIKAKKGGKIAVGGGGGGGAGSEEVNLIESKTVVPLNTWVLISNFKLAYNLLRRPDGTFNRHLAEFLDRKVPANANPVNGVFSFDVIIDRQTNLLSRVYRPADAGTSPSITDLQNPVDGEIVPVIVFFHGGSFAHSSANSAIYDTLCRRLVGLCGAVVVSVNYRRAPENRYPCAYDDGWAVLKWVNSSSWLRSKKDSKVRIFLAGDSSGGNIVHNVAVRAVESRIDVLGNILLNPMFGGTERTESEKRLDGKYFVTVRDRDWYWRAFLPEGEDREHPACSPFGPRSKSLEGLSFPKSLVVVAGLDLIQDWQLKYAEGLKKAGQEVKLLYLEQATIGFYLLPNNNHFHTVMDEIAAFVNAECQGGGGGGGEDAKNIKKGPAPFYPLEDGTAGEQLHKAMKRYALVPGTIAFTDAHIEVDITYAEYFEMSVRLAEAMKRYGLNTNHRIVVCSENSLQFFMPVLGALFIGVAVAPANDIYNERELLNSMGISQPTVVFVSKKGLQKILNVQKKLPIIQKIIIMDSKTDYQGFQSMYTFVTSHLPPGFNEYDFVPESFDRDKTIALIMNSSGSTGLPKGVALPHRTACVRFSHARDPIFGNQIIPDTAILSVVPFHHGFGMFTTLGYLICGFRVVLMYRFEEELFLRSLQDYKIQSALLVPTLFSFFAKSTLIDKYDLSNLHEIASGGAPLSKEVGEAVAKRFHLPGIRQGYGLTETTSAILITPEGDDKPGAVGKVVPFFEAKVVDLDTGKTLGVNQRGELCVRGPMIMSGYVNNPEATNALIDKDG
T1 sequence (Q9LQT8 2-533 partner limits assumed): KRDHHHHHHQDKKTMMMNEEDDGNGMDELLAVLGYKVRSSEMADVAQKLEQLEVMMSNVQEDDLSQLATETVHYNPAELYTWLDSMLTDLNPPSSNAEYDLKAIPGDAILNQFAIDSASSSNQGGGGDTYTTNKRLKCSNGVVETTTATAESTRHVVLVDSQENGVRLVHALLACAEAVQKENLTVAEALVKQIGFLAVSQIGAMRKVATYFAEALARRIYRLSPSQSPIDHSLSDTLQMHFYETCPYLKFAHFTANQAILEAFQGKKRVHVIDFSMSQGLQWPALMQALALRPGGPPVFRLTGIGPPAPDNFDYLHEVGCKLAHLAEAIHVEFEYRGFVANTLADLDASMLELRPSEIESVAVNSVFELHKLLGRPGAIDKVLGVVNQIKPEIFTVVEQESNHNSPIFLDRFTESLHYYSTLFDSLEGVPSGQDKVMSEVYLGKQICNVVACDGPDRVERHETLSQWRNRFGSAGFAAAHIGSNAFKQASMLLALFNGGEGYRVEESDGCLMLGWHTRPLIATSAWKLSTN
Procedure: Two representative colonies were selected and plated onto Nylon membranes as described before. After 3 days at 30° C. the membranes were incubated in selective media containing luciferase substrate for 4 hours in dark at room temperature. […] Luciferase activity was recorded as indicated before. For liquid assays, the inventors inoculated one representative colony for each version of the sensor in 5 ml of selective media (YNB, MPBlo, supplemented with CSM Trp^−, Bio 101) containing luciferase substrate and grown under shaking at 28° C. for 18 hours. […] Plates were incubated for 16 hours at 28° C. in a cabinet and luciferase activity was recorded during the entire period of the experiment using a Topcount™ device (Perkin Elmer).
First, the coding sequence of the DELLA protein GAI (At1g14920) was cloned into the yeast plasmid pDEST32 (Invitrogen) yielding the construct IR236. Subsequently, yeast cells were transformed with the plasmids IR206 or IR214 in combination with the empty pDEST32 vector or IR236. Following the same approach than described before in Example 3, we assayed 4 GA isoforms, the same four than in the former assay. The experimental setting was the same than in Example 3 with the difference that the selective media used was deficient in Trp and Leu (YNB, MPBlo, supplemented with CSM Trp^−Leu^−, Bio 101) to select for the presence of both plasmids within the yeast cells. […]

[3] = target: T2, Arabidopsis thaliana GID1C based sensor (Arabidopsis thaliana, UniProt Q940G6); assay: in planta assay: GA sensor in ga1-3 mutant plants sprayed with GA3, luciferase imaging; type: in vivo; settings: ga1-3 plants containing the sensor, sprayed with 100 μM GA3 solution vs mock; FIG. 4
T2 construct: expressed in transfected cells; host or cells: Arabidopsis thaliana ga1-3 mutant plants (Ler background), Agrobacterium floral dip, construct IR216 (35S::GID1CLUC in pFK210)
T2 sequence (Q940G6 with tags, fused parts or gaps): as the sequence (Q940G6 with tags, fused parts or gaps) above
Excerpt: To validate in planta the results obtained in yeast, the inventors introduced the GA sensors under the control of the constitutive viral promoter 35S into Arabidopsis thaliana plants. The constructs IR208 and IR216 were independently introduced using the floral dip method of Agrobacterium-mediated transformation into the Arabidopsis thaliana Ler-1 (Landsberg erecta) wild-type strain and its isogenic ga1-3 mutant strain (containing a deletion in the gene for the enzyme that catalyzes an early step in the synthesis of GA: Sun et al., Plant Cell, 1992, 4, 119-128). Plants were grown in soil under Basta™ selection and short day conditions (8h light/16h dark).
In this case, the Arabidopsis thaliana GID1C based sensor produced a faster and stronger signal than the Arabidopsis thaliana GID1B based sensor. To ascertain whether the reporter system according to the invention could quantitatively report the presence of endogenous bioactive GA isoforms, the inventors grew the Arabidopsis thaliana Ler-1 wild-type plants containing the Arabidopsis thaliana GID1C based sensor along with Arabidopsis thaliana GA3ox1-GUS and GA3ox2-GUS reporter lines. The GA sensor was active in a pattern that indicated the presence of active forms of GA in emerging leaves and at the base and vasculature of older leaves. […]

[4] = target: T3, GID1B based sensor (GID1B.5) (Arabidopsis thaliana, UniProt Q9LYC1, V53A); assay: yeast solid media luciferase assay, GID1B based sensor (GID1B.5) with overlapping firefly luciferase fragments; type: cell-based; settings: GA3 100 μM vs mock (100% ethanol), FIG. 7
T3 construct: a GID1B based sensor with overlapping firefly luciferase fragments (plasmid IR235); expressed in transfected cells; host or cells: Saccharomyces cerevisiae (yeast), plasmid printed as IR235
T3 sequence (Q9LYC1 other isoform, or with tags, fused parts or gaps V53A): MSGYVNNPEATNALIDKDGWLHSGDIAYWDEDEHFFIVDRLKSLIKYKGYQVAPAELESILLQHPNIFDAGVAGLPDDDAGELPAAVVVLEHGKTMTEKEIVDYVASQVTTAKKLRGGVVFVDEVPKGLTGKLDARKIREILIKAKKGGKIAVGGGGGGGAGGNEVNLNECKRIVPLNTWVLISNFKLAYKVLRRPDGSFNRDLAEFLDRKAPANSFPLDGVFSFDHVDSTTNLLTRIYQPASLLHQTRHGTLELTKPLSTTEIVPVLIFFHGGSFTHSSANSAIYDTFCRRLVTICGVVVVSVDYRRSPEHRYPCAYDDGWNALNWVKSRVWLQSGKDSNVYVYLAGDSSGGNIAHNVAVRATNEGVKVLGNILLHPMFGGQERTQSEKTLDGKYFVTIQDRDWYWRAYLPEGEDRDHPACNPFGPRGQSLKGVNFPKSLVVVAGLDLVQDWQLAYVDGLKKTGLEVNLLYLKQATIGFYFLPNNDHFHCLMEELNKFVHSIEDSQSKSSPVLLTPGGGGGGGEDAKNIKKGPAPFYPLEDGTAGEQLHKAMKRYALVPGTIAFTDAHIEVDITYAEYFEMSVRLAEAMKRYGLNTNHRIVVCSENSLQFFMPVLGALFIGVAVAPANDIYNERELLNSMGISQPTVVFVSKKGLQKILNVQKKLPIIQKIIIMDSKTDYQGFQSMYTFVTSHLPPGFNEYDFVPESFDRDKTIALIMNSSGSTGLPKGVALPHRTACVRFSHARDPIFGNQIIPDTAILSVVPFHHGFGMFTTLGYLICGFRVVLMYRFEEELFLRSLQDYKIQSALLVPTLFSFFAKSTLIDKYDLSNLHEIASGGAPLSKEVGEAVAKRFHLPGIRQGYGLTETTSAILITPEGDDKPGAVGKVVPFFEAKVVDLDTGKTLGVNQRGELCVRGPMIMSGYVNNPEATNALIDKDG
Procedure: In order to assess the impact of the presence of overlapping parts of firefly luciferase on the GID1B based sensor (GID1B.5) at the split point, a GID1B based sensor with overlapping firefly luciferase fragments (plasmid IR235) was compared in a Y2H assay to a GID1B based sensor without overlapping firefly luciferase fragments (plasmid IR241).
Four representative colonies were selected and plated onto Nylon membranes as described before. After 3 days at 30° C. the membranes were incubated in selective media containing luciferase substrate for 4 hours in dark at room temperature. Each replicate was subsequently transferred to plates containing selective media supplemented with luciferase substrate. […] Luciferase activity was recorded as indicated before.

Compound | biological activity in planta assay [1] | luciferase signal [2] | bioluminescence upon luciferase substrate application [3] | luciferase signal [4]
C=C1C[C@]23C[C@H]1CC[C@H]2[C@@]12CC[C@H](O)[C@@](C)(C(=O)O1)[C@H]2[C@@H]3C(=O)OC [GA4-methylester, GA4-methyl ester] | barely active | triggered luciferase signal | – | –
C=C1C[C@]23C[C@H]1CC[C@H]2[C@@]12CC[C@H](O)[C@@](C)(C(=O)O1)[C@H]2[C@@H]3C(=O)O [GA4] | most biologically active | – | – | –
C=C1C[C@]23C[C@@]1(O)CC[C@H]2[C@@]12C=C[C@H](O)[C@@](C)(C(=O)O1)[C@H]2[C@@H]3C(=O)O [GA3, gibberellic acid] | – | – | showed bioluminescence | clearly higher
C=C1C[C@]23C[C@@]1(O)CC[C@H]2[C@@]12CC[C@H](O)[C@@](C)(C(=O)O1)[C@H]2[C@@H]3C(=O)O [GA1] | less activity | – | – | –
